Data taken from patent US5721265A, “Fluorinated 2-nitroimidazole analogs for detecting hypoxic tumor cells” (priority 1995, dated 1998).
In brackets after ≈: the same amount, converted by molar mass.

Legend:
[1] = in vivo; cited from earlier work
[2] = cited from earlier work
[3] = tested on: mouse tumors (EMT-6, KHT, RIF-1); settings: cited from earlier work; for 19F signal intensity by tumor type: EMT-6, KHT vs RIF-1; for retention in mouse tumors (19F MRS): in vivo
[4] = tested on: tumors; settings: cited from earlier work
[5] = log P (lipophilicity); assay type: physicochemical
[6] = solubility in 0.9% saline solution
[7] = literature compounds; cited from earlier work

## O=[N+]([O-])c1nccn1CC(O)CF (stereo not shown) [Ro 07-0741]
[1]
  neurotoxic side effects: neurotoxic side effects
[2]
  octanol/water partition coefficient: 0.41
[3]
  19F signal intensity by tumor type: higher in EMT-6 and KHT than RIF-1 tumors
  retention in mouse tumors (19F MRS): selectively retained in mouse tumors

## O=[N+]([O-])c1nccn1CC(O)COC(C(F)(F)F)C(F)(F)F (stereo not shown) [CCI-103F, hexafluoromisonidazole]
[4]; immunohistochemistry
  staining for bound drug in tumors: some staining for bound drug at the periphery of necrotic zones
[4]; intraperitoneal, 24 hours
  19F tumor signal detectable after twenty-four hours: 4 of 10
[1]
  neurotoxic side effects: neurotoxic side effects
[2]
  octanol/water partition coefficient: 20
[3]
  19F signal intensity by tumor type: higher in EMT-6 and KHT than RIF-1 tumors
  retention in mouse tumors (19F MRS): selectively retained in mouse tumors

## O=C(Cn1ccnc1[N+](=O)[O-])N(CCO)CC(O)C(F)(F)F (stereo not shown) [SR 4557, N-(2-hydroxyethyl)-N-(2-hydroxy-3,3,3-trifluoropropyl)-2-(2-nitro 1H-imidazol-1-yl)acetamide]
[5]
  logP: -0.36
[6]
  solubility: 628 mM (≈ 205 mg/mL)

## O=C(Cn1ccnc1[N+](=O)[O-])NCCO [Etanidazole]
[7]
  log P: -1.28
[1]
  neurotoxicity relative to Misonidazole: less neurotoxic than Misonidazole
[6]
  solubility: 551 mM (≈ 118 mg/mL)

## COCC(O)Cn1ccnc1[N+](=O)[O-] (stereo not shown) [Misonidazole]
[7]
  log P: -0.32
